Assay results as given in patent publication US20240009161A1, “[…] MATERIAL WITH LOW pH AND LOW TOXICITY ACTIVE AGAINST AT LEAST ONE PATHOGEN FOR ADDRESSING PATIENTS WITH RESPIRATORY […]” (priority 2020, published 2024).
“And” between values parts separate entries of the source, which are not always exact repeats. Identical values can stand only once. Like-named read-outs stand apart in the source and are kept apart here.

Key:
[1] = test system: SARS-CoV-2 virus; conditions: hard surfaces, 1 minute, 4% concentration, 2.68 pH; cited from earlier work
[2] = test system: Streptococcus pneumoniae ATCC 6303; assay: ASTM E2315 suspension test, 1 minute; type: cell-based
Description: (§1) In order to assess the antimicrobial efficacy of various acid compounds and combinations, a variety of potential pharmaceutically acceptable fluid formulations within the scope of the present disclosure were evaluated to determine antimicrobial efficacy against common viral, bacterial, and fungal pathogens. These studies were all performed by an ISO 17025 Accredited and GLP Compliant Laboratory. These in vitro tests followed ASTM (American Society of Testing and Materials) standard suspension tests for antimicrobial efficacy. The tests were all performed with a 1-minute contact time based on the pharmacokinetics previously described.
Purpose: Streptococcus pneumoniae is a leading cause of bacterial pneumonia, meningitis, and sepsis, and is estimated to have caused approximately 335,000 (240,000-460,000) deaths in children aged <5 years in 2015 globally. Due to the prevalence and mortality of S. pneumoniae a wide range of acid formulations were tested against this common pathogen to determine what variables may affect efficacy. The purpose of the tests performed was to determine what pH is required to achieve 1 log (90%) efficacy in 1 minute against S. pneumoniae using various acid formulations.

[3] = test system: Haemophilus influenza ATCC 8149; assay: ASTM E2315 suspension test, 1 minute; type: cell-based; conditions: 1.99 pH
Description: as §1
Three other bacteria and three fungi were selected that represent a wide variety of respiratory pathogens.

[4] = test system: L929 mouse cell line; conditions: for Cytotoxicity Grade: mouse
[5] = test system: Mycobacterium terrae ATCC 15755; type: cell-based
[6] = test system: Influenza A (H1N1) A/PR/8/34 Strain; type: cell-based, Influenza A virus
[7] = test system: Human Coronavirus, 229E strain, ATCC VR-740; assay: ASTM E1052 virus suspension test, 1 minute; type: cell-based
Description: A 1-minute suspension test is considered to be the most representative in vitro test to simulate in vivo efficacy based on previously discussed pharmacokinetics. A 1 log or 90% efficacy target has been chosen with consideration of patient recovery, while minimizing the effective concentration and potential patient risk. In one contemplated method of administration as described in the present disclosure, the material is administered to the patient in need thereof by inhalation by nebulizer. It is contemplated that patients using an inhalation method such as nebulizer administration would be inhaling the therapeutic material comprising a pharmaceutically acceptable fluid as disclosed herein continuously for several minutes in a specific concentration either continuously or in a series of discrete dose intervals with potentially multiple times per day potentially over multiple days. As a result, any reduction in pathogen load in vitro may be compounded in vivo to achieve higher efficacy over the treatment period.
as §1
Purpose: COVID-19 is a global pandemic caused by the SARS-CoV-2 coronavirus. The purpose of these studies was to determine the efficacy of several inorganic acids against the human coronavirus and ascertain the pH required to achieve 1 log efficacy in 1 minute.
SARS-CoV-2 is a beta coronavirus. An alpha coronavirus was used in these studies since this was the closest virus available at the test laboratory. The alpha coronavirus is considered to be representative for efficacy on SARS-CoV-2 for purposes of this investigation.
Due to the larger increase in pH, none of the acids achieved the 1 log efficacy goal.
The EMEM includes live MRC-5 cells which have significant buffer capacity.

[8] = test system: Rhizopus microspores ATCC 52807; assay: ASTM E2315 suspension test, 1 minute; type: cell-based; conditions: 1.9 pH
[9] = test system: Aspergillus fumigatus ATCC 36607; assay: ASTM E2315 suspension test, 1 minute; type: cell-based; conditions: 1.9 pH
[10] = test system: Pseudomonas aeruginosa ATCC BAA-2801; assay: ASTM E2315 suspension test, 1 minute; type: cell-based
Description: as §1
(§2) Purpose: The first set of in vitro efficacy tests were performed on antibiotic resistant Staphylococcus aureus and Pseudomonas aeruginosa bacteria. These two antibiotic resistant bacterial strains were initially selected since these pathogens represent two broad classes of bacteria. S. aureus is gram-positive and P. aeruginosa is gram-negative. Antibiotic resistant strains of each pathogen are considered some of the deadliest respiratory bacterial strains with limited therapeutic options.
(§3) The as-received pH measurements were of the test materials as received by the test laboratory. The ASTM antimicrobial test procedures mix 9 parts test material with 1 part medium containing the pathogen. The as-applied pH is the pH after mixing, which is what is seen by the pathogen. After the test duration, 1 minute for these tests, the test material is neutralized, and the pathogens are counted and compared with the control.

[11] = test system: Rhinovirus 37; assay: ASTM E1052 virus suspension test, 1 minute; type: cell-based; conditions: 1.66 and 1.90 pH
[12] = test system: Klebsiella pneumoniae ATCC 4532; assay: ASTM E2315 suspension test, 1 minute; type: cell-based; conditions: 1.99 pH
[13] = test system: Staphylococcus aureus ATCC (MRSA) 33591; assay: ASTM E2315 suspension test, 1 minute; type: cell-based; conditions: pH 3.1, one minute
Description: as §1, §2, §3

CC(=O)O [acetic acid, Acetic acid]
Log efficacy [1]: 4 log

Br [hydrobromic acid, Hydrobromic acid]
Effective pH to meet the 1 log efficacy target [2]: 1.90 pH

Cl [hydrochloric acid, Hydrochloric acid]
Effective pH to meet the 1 log efficacy target [2]: approximately 1.87 pH | Efficacy ([2]; 1.98 pH): no little efficacy

O=S(=O)(O)O [sulfuric acid, Sulfuric acid]
Effectiveness [3]: highly effective | Test Results [4]: No biological reactivity | Cytotoxicity Grade ([4]; 0.12 %): Grade 0 | Cytotoxicity Grade ([4]; 0.18 %): Grade 0 | Cytotoxicity Grade ([4]; 0.3 %): Grade 0 | Cytotoxicity Grade ([4]; […]): Grade 0 | Efficacy % [5]: 25% and 24.56% | Efficacy log [5]: 0.12 log | Log efficacy [6]: > 4 log | Efficacy % [7]: 82.11% | Efficacy at inactivating human coronavirus [7]: provides efficacy at inactivating and/or reducing concentration of human coronavirus | Efficacy log [7]: 0.75 log | In vitro efficacy on human coronavirus [7]: demonstrated in vitro efficacy on human coronavirus | In vitro suspension efficacy, % [7]: 82.11% | In vitro suspension efficacy, log [7]: 0.75 log | Effectiveness [8]: effective | Effectiveness [9]: effective | Effective pH to meet the 1 log efficacy target [2]: 1.91 pH | Effectiveness ([2]; 1.9 pH): effective | Effectiveness ([10]; 1.9 pH, antibiotic resistant strain): effective | Log efficacy [11]: > 2 log | Effectiveness [12]: highly effective

Albuterol sulfate [reference compound]
Efficacy as 1 log decrease in pathogen count [13]: no efficacy | Effectiveness vs 1 log target ([10]; 3.1 pH): no efficacy

Polyphosphoric acid
Effective pH to meet the 1 log efficacy target [2]: approximately 1.85 pH
